Experimental data taken from BindingDB's records for doi:10.1016/j.bmc.2012.01.022 (Florida A&M University, 2012).

Key:
[1] = biological target: 5-hydroxytryptamine receptor 2A (Homo sapiens, UniProt P28223); test: Binding affinity at 5-HT2A receptor by radioligand displacement assay
[2] = biological target: T1, 5-hydroxytryptamine receptor 2C (Homo sapiens, UniProt P28335); test: Binding affinity at 5-HT2C receptor by radioligand displacement assay
T1 sequence (P28335 whole entry): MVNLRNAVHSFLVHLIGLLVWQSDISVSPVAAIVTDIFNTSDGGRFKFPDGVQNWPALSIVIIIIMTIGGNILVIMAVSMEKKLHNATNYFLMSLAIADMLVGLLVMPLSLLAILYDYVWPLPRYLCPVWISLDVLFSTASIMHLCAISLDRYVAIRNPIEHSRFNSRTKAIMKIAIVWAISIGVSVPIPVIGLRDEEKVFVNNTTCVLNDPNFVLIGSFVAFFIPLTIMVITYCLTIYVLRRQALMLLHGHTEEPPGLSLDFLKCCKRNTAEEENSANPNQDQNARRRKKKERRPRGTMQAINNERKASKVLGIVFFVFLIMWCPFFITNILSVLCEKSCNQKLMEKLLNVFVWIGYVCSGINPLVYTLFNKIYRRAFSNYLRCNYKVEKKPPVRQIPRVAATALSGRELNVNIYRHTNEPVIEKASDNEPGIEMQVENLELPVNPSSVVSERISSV

[3] = biological target: Histamine H1 receptor (Homo sapiens, UniProt P35367); test: Displacement of [3H]-Pyrilamine from human histamine H1 receptor by liquid scintillation counter
[4] = biological target: D(2) dopamine receptor (Homo sapiens, UniProt P14416); test: Displacement of [3H]-N-methylspiperone from dopamine D2 receptor expressed in human MES-23.5 cells
Sequence of D(2) dopamine receptor (P14416 whole entry): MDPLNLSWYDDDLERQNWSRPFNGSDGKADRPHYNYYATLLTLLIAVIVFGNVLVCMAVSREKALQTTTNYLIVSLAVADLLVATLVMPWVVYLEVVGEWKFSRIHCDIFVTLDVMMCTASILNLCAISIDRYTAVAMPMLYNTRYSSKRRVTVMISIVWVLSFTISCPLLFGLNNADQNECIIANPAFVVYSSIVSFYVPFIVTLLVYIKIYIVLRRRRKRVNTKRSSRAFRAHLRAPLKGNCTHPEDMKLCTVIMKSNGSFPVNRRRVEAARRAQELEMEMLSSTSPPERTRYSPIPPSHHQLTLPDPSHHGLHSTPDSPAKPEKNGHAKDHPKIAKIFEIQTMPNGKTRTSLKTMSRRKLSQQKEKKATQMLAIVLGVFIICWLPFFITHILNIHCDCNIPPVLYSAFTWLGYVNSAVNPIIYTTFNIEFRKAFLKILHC

Sequence of 5-hydroxytryptamine receptor 2A (P28223 whole entry): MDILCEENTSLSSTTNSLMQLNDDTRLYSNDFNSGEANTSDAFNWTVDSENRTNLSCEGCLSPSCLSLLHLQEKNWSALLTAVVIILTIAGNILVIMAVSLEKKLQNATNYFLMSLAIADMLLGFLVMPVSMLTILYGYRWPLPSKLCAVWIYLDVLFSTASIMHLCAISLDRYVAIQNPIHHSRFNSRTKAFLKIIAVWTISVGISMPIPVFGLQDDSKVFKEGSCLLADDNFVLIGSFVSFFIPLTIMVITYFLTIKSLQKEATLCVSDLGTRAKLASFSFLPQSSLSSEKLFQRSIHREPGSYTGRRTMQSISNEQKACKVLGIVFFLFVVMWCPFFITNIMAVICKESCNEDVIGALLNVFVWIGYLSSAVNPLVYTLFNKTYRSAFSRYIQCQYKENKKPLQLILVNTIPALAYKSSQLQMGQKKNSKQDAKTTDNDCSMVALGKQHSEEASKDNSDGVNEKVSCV
Sequence of Histamine H1 receptor (P35367 whole entry): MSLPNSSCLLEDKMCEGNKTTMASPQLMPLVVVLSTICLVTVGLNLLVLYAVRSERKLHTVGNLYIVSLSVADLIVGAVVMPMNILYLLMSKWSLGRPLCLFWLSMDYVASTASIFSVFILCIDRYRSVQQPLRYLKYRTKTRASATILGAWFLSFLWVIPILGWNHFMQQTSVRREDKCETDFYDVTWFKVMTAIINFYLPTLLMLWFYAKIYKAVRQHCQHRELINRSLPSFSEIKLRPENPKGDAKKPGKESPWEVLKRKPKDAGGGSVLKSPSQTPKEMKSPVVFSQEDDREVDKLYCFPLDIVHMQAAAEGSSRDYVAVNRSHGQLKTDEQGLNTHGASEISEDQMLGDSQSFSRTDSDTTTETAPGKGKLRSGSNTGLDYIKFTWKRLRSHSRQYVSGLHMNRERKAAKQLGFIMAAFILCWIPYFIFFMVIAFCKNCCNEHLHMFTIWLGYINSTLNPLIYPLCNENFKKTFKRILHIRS

SMILES	Ki [1] [nM]	Ki [2] [nM]	Ki [3] [nM]	Ki [4] [nM]
OC1(c2ccc(Cl)cc2)C[C@H]2CC[C@@H](C1)N2CCCCc1nc2ccccc2s1 (some centres undefined)	> 10000	4620	187	
O=C(CCCCN1[C@@H]2CC[C@H]1CC(O)(c1ccc(Cl)cc1)C2)c1nc2ccccc2s1 (some centres undefined)				180
